From patent US20260272895A1, “METHODS AND KITS FOR DELIVERY OF COMPOUNDS INTO CELLS” (Yale University, priority 2023, published 2026)

Columns and labels:
NIH3T3 cells = test: Assessment of pharmacological effects in vitro in NIH3T3 cells (tubulin staining, multinucleated cells); type: cell-based
Text: Confocal microscopy of the different treatment groups allowed us to visualize Hoechst dye-labeled nuclei to quantify the proportion of cells with multinucleated phenotype which is known to occur with Colchicine treatments.

brain cell types = test: In vivo two-photon imaging of mouse cortex after topical cortical administration of fluorophores; settings: for Target: cell type taking up the compound in vivo (Table 1); for cellular labeling in cortex: topical cortical administration, 50 μM, wild type mice
Protocol: Briefly, animals are anaesthetized via intraperitoneal injections of ketamine/xylazine or via inhaled isoflurane. A region of the skull (3×3 mm) is gently removed with a high-speed drill and the underlying dura is removed. A small glass coverslip is placed over the skull to allow long term optical access for in vivo imaging. Labeling with fluorescent dyes is performed either via intravenous injections or topically application to the cortical surface for 20 min prior to glass cover placement. After recovery, in vivo images are acquired using a two-photon microscope (Bruker Technologies) equipped with a multimodal (fixed wavelength 1040 nm and tunable wavelength) InSight X3 two-photon laser (Spectra Physics) and 20× water immersion objective (Zeiss 1.0N.A.). The two-photon laser is appropriately tuned to excite particular fluorescent dyes and proteins as needed. In selected cases, following in vivo imaging, mice will be sacrificed and perfused for follow up immunohistochemistry and high-resolution confocal imaging (Leica SP8) to further confirm colocalization of dyes and cells expressing particular transporters.
One-month-old wild-type mice were anesthetized using a ketamine/xylazine solution at doses of 100 mg/kg and 10 mg/kg, respectively. The fur around the skull area was shaved, and buprenex (0.1 mg per kg) and carprofen (5 mg per kg) were administered subcutaneously. Mice were kept on a heating pad at 37° C., and anesthesia was periodically monitored. The skin was treated with povidone-iodine solution, followed by cleaning with ethanol, and eye ointment was applied. A small skin section was excised to expose the skull. Thinning of the skull was performed in a circular area, followed by delicately lifting of the remaining skull without harm to the underlying brain. Within the circular region, the dura was gently removed using fine forceps, and a 4 mm cover glass was softly pressed onto the brain surface and affixed to the skull. Fluorescent dyes were applied either through intravenous injections or topically to the cortical surface for 20 minutes before placing the glass cover. A customized head bar was attached either by adhesive (for acute imaging) or permanently implanted (using dental cement, for chronic imaging) onto the skull. Mice were imaged under a two-photon microscope (Prairie Technologies) with a mode-locked MaiTai tunable laser (Spectra Physics). Imaging was performed with a 20× water immersion objective (Zeiss, 1.0NA). Images were captured at depths up to 300 μm from the pial surface using excitation wavelengths ranging from 750 to 950 nm as previously described. Mice undergoing chronic imaging received a recovery period on a heating pad post-surgery, and buprenex (0.1 mg per kg) and carprofen (5 mg per kg) were administered for 3 days.
Batches of 10 compounds were applied through the craniotomy to the cortical surface before placing a cover glass window. No additional washings were performed, and the cover glass was placed, allowing up to 3 hours of imaging of the cortical surface with a two-photon microscope. Following imaging, the data were analyzed to identify potential patterns of cell-specific labeling. […] Positive batches underwent three additional rounds of imaging, with each batch being sequentially split, until a single compound displaying cell-type-specific labeling was identified. As these compounds were not initially purified, the labeling may have resulted from fluorescent byproducts of synthesis. Consequently, large-scale synthesis, purification and characterization (FIGS. 29A-29D) of the identified compounds were conducted. The purified compounds were subsequently retested using in vivo imaging to confirm cell type specificity.
It was reasoned that the best strategy to identify fluorophores with specific affinity to certain cell types and transport mechanisms would be by direct screening in the intact in vivo brain microenvironment. […]

Compound	Target (brain cell types)	also measured
COc1cc2c(c(OC)c1OC)-c1ccc(OC)c(=O)cc1[C@@H](NC(C)=O)CC2 [Colchicine]		alpha tubulin staining (NIH3T3 cells; 30 μM, NIH3T3 cells (FIG. 11A)): equal disruption of the tubulin structure; alpha tubulin staining (NIH3T3 cells; 100 μM, NIH3T3 cells (FIG. 11B)): equal disruption of the tubulin structure; phalloidin staining (NIH3T3 cells; 100 μM, NIH3T3 cells (FIG. 11D)): disruption of the tubulin structure; phalloidin staining (NIH3T3 cells; NIH3T3 cells (FIG. 11C), concentration not given): equal disruption of the tubulin structure; cell morphology / multinucleated cells (NIH3T3 cells; NIH3T3 cells (FIG. 17A)): changes in cell morphology and presence of multinucleated cells; pattern of α-tubulin immunofluorescence (NIH3T3 cells; NIH3T3 cells, 12 hours, varying concentrations (FIG. 17A)): diffuse labeling pattern
O=S(=O)([O-])c1cc(S(=O)(=O)O)ccc1C1=c2cc3c4c(c2Oc2cc(I)c(Cl)cc21)CCC[N+]=4CCC3 [Compound 16, 2-(11-chloro-12-iodo-1,2,3,5,6,7-hexahydrochromeno[2,3-f]pyrido[3,2,1-ij]quinolin-4-ium-9-yl)-5-sulfobenzenesulfonate]	Endothelial	
O=S(=O)([O-])c1cc(S(=O)(=O)O)ccc1C1=c2cc3c4c(c2Oc2cc(Cl)c(F)cc21)CCC[N+]=4CCC3 [Compound 11, 2-(12-chloro-11-fluoro-1,2,3,5,6,7-hexahydrochromeno[2,3-f]pyrido[3,2,1-ij]quinolin-4-ium-9-yl)-5-sulfobenzenesulfonate]	Endothelial	
Cc1ccc2c(-c3ccc(S(=O)(=O)O)cc3S(=O)(=O)[O-])c3ccc(Br)cc3[o+]c2c1 [Compound 29]	Endothelial	
CN(C)c1ccc2c(-c3ccc(S(=O)(=O)O)cc3S(=O)(=O)[O-])c3cc(Br)ccc3[o+]c2c1 [Compound 38, 2-(2-bromo-6-(dimethylamino)xanthylium-9-yl)-5-sulfobenzenesulfonate]	Astrocyte	
CN(C)c1ccc2c(-c3ccc(S(=O)(=O)O)cc3S(=O)(=O)[O-])c3ccc(N(C)C)cc3[o+]c2c1 [Compound 43, 2-(3,6-bis(dimethylamino)xanthylium-9-yl)-5-sulfobenzenesulfonate]	Endothelial	cellular labeling in cortex (brain cell types): robust endothelial specific uptake
O=S(=O)([O-])c1cc(S(=O)(=O)O)ccc1-c1c2ccc(B(O)O)cc2[o+]c2c3c4c(cc12)CCCN4CCC3 [Compound 41, 2-(12-borono-2,3,6,7-tetrahydro-1H,5H-chromeno[2,3-f]pyrido[3,2,1-ij]quinolin-14-ium-9-yl)-5-sulfobenzenesulfonate]	Endothelial	
O=S(=O)([O-])c1cc(S(=O)(=O)O)ccc1-c1c2ccc(Br)cc2[o+]c2ccc(-n3ccnc3)cc12 [Compound 31, 2-(6-bromo-2-(1H-imidazol-1-yl)xanthylium-9-yl)-5-sulfobenzenesulfonate]	Endothelial	
O=S(=O)([O-])c1cc(S(=O)(=O)O)ccc1C1=c2cc3c4c(c2Oc2c(Br)cc(Br)cc21)CCC[N+]=4CCC3 [Compound 7, 2-(11,13-dibromo-1,2,3,5,6,7-hexahydrochromeno[2,3-f]pyrido[3,2,1-ij]quinolin-4-ium-9-yl)-5-sulfobenzenesulfonate]	Endothelial	
CC(=O)N(O)CCCCCNC(=O)CCC(=O)N(O)CCCCCNC(=O)CCC(=O)N(O)CCCCCNS(=O)(=O)c1ccc(-c2c3ccc(N(C)C)cc3[o+]c3cc(N(C)C)ccc23)c(S(=O)(=O)[O-])c1 [Compound 49, 2-(3,6-bis(dimethylamino)xanthylium-9-yl)-5-(N-(3,14,25-trihydroxy-2,10,13,21,24-pentaoxo-3,9,14,20,25-pentaazatriacontan-30-yl)sulfamoyl)benzenesulfonate]		in vivo endothelial labeling/uptake (brain cell types; two-photon images of mouse cortex, route and concentration not stated): robust endothelial cell body uptake
O=C(O)CCc1ccc2c(c1)Oc1c3c4c(cc1=C2c1ccc(S(=O)(=O)O)cc1S(=O)(=O)[O-])CCC[N+]=4CCC3 [Compound 37, 2-(12-(2-carboxyethyl)-1,2,3,5,6,7-hexahydrochromeno[2,3-f]pyrido[3,2,1-ij]quinolin-4-ium-9-yl)-5-sulfobenzenesulfonate]	Astrocyte	
O=S(=O)([O-])c1cc(S(=O)(=O)O)ccc1C1=c2cc3c4c(c2Oc2cc5ccc(Br)cc5cc21)CCC[N+]=4CCC3 [Compound 44, 2-(12-bromo-1,2,3,5,6,7-hexahydrobenzo[6,7]chromeno[2,3-f]pyrido[3,2,1-ij]quinolin-4-ium-9-yl)-5-sulfobenzenesulfonate]	Endothelial	
O=S(=O)([O-])c1cc(S(=O)(=O)O)ccc1C1=c2cc3c4c(c2Oc2cc(F)ccc21)CCC[N+]=4CCC3 [Compound 2, 2-(12-fluoro-1,2,3,5,6,7-hexahydrochromeno[2,3-f]pyrido[3,2,1-ij]quinolin-4-ium-9-yl)-5-sulfobenzenesulfonate]	Endothelial	endothelial cell labeling/uptake after topical application to the brain (brain cell types; topical cortical application): selectively labeling endothelial cells in vivo
O=S(=O)([O-])c1cc(S(=O)(=O)O)ccc1C1=c2cc3c4c(c2Oc2c1ccc(F)c2F)CCC[N+]=4CCC3 [Compound 19, 2-(12,13-difluoro-1,2,3,5,6,7-hexahydrochromeno[2,3-f]pyrido[3,2,1-ij]quinolin-4-ium-9-yl)-5-sulfobenzenesulfonate]	Endothelial	
O=S(=O)([O-])c1cc(S(=O)(=O)O)ccc1C1=c2cc3c4c(c2Oc2cc(Cl)c(Br)cc21)CCC[N+]=4CCC3 [Compound 13, 2-(11-bromo-12-chloro-1,2,3,5,6,7-hexahydrochromeno[2,3-f]pyrido[3,2,1-ij]quinolin-4-ium-9-yl)-5-sulfobenzenesulfonate]	Endothelial	
O=S(=O)([O-])c1cc(S(=O)(=O)O)ccc1C1=c2cc3c4c(c2Oc2c1cc1ccccc1c2Br)CCC[N+]=4CCC3 [Compound 45, 2-(15-bromo-1,2,3,5,6,7-hexahydrobenzo[6,7]chromeno[2,3-f]pyrido[3,2,1-ij]quinolin-4-ium-9-yl)-5-sulfobenzenesulfonate]	Endothelial	
O=S(=O)([O-])c1cc(S(=O)(=O)O)ccc1C1=c2cc3c4c(c2Oc2cc(F)c(Br)cc21)CCC[N+]=4CCC3 [Compound 10, 2-(11-bromo-12-fluoro-1,2,3,5,6,7-hexahydrochromeno[2,3-f]pyrido[3,2,1-ij]quinolin-4-ium-9-yl)-5-sulfobenzenesulfonate]	Endothelial	
CN(C)c1ccc2c(-c3ccc(S(=O)(=O)Cl)cc3S(=O)(=O)[O-])c3ccc(N(C)C)cc3[o+]c2c1 [Compound 54, 2-(3,6-bis(dimethylamino)xanthylium-9-yl)-5-(chlorosulfonyl)benzenesulfonate]		cellular labeling in cortex (brain cell types): robust endothelial specific uptake
O=S(=O)([O-])c1cc(S(=O)(=O)O)ccc1C1=c2cc3c4c(c2Oc2c1ccc(Br)c2F)CCC[N+]=4CCC3 [Compound 21, 2-(12-bromo-13-fluoro-1,2,3,5,6,7-hexahydrochromeno[2,3-f]pyrido[3,2,1-ij]quinolin-4-ium-9-yl)-5-sulfobenzenesulfonate]	Endothelial	
O=S(=O)([O-])c1cc(S(=O)(=O)O)ccc1C1=c2cc3c4c(c2Oc2cc(F)c(F)cc21)CCC[N+]=4CCC3 [Compound 8, 2-(11,12-difluoro-1,2,3,5,6,7-hexahydrochromeno[2,3-f]pyrido[3,2,1-ij]quinolin-4-ium-9-yl)-5-sulfobenzenesulfonate]	Endothelial	
